Data as given in US12642270B2, “Substituted thiophene carboxamides, thiophene carboxylic acids and derivatives thereof” (Bayer Aktiengesellschaft, priority 2019, dated 2026).

Assay: Log P by HPLC on reversed phase columns (EEC directive 79/831 Annex V.A8)
Assay type: physicochemical
Procedure, shortened: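 Values come from retention times calibrated against alkan-2-ones (3–16 carbons) by linear interpolation, using reversed-phase LC-UV per EEC directive 79/831 Annex V.A8. Acetonitrile gradient 10–95% with 0.1% formic acid [a], 0.001 M ammonium acetate [b] or 0.1% phosphoric acid [c]; several values within one method separated by "+".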

Compound | LogP (method marked [a]) | LogP (method [a])
CCOC(=O)CN(OC)C(=O)c1sc(C#N)c(Br)c1C [1.0749] | 3.23^[a] | 
COC(=O)C(CCSC)NC(=O)c1sc(C#N)c(Br)c1C (stereo not shown) [1.0751] | 3.06^[a] | 
CCOC(=O)C(CSC)NC(=O)c1sc(Cl)c(Br)c1C (stereo not shown) [1.0753] | 3.97^[a] | 
CCOC(=O)C(CSC)NC(=O)c1sc(Cl)c(Cl)c1C#N (stereo not shown) [1.0754] | 3.37^[a] | 
CCOC(=O)C(CSC)NC(=O)c1sc(Br)c(Br)c1C#N (stereo not shown) [1.0755] | 3.40^[a] | 
CCOC(=O)C(CSC)NC(=O)c1sc(Br)c(Cl)c1C (stereo not shown) [1.0756] | 3.94^[a] | 
CC(C)(C)OC(=O)C1(NC(=O)c2sc(Br)c(Br)c2Cl)CC(F)(F)C1 [1.0757] | 4.89^[a] | 
CCOC(=O)C(C#N)NC(=O)c1sc(Cl)c(Cl)c1C (stereo not shown) [1.0758] | 3.23^[a] | 
CCOC(=O)C(C)(C)NC(=O)c1sc(Cl)c(Br)c1C [1.0760] | 3.66^[a] | 
CCOC(=O)[C@H](CCSC)NC(=O)c1sc(Br)c(Cl)c1C [1.0765] | 4.01^[a] | 
COC(=O)[C@H](CCSC)NC(=O)c1sc(Cl)c(Br)c1C [1.0767] | 3.74^[a] | 
CCOC(=O)C(CSC)NC(=O)c1sc(C#N)c(Br)c1C (stereo not shown) [1.0769] | 3.26^[a] | 
CCOC(=O)C(NC(=O)c1sc(C#N)c(Cl)c1C)C(=O)OCC [1.0771] | 3.20^[a] | 
CCOC(=O)C(NC(=O)c1sc(Br)c(Br)c1F)C(=O)OCC [1.0772] | 3.91^[a] | 
CCOC(=O)C(NC(=O)c1sc(C#N)c(Br)c1C)C(=O)OCC [1.0773] | 3.23^[a] | 
CCOC(=O)C(NC(=O)c1sc(Cl)c(Cl)c1C#N)C(=O)OCC [1.0774] | 3.40^[a] | 
CCOC(=O)C(NC(=O)c1sc(Cl)c(Cl)c1Br)C(=O)OCC [1.0775] | 4.30^[a] | 
COC(=O)C(CCSC)NC(=O)c1sc(Br)c(Br)c1C#N (stereo not shown) [1.0778] | 3.37^[a] | 
CCOC(=O)C(CO)NC(=O)c1sc(Br)c(Br)c1Cl (stereo not shown) [1.0779] | 2.89^[a] | 

Compound | LogP (method marked [a]) | LogP (method [a])
CCOC(=O)C(CO)NC(=O)c1sc(Cl)c(Cl)c1Br (stereo not shown) [1.0780] | 3.06^[a] | 
CCOC(=O)C1(NC(=O)c2sc(Br)c(Cl)c2Br)CC1 [1.0782] | 3.56^[a] | 
CCOC(=O)C(NC(=O)c1sc(Br)c(Br)c1Cl)C(=O)OCC [1.0783] | 4.33^[a] | 
C#CCOC(=O)C1(NC(=O)c2sc(Cl)c(Cl)c2C#N)CC1 [1.0785] | 2.65^[a] | 
NC(=O)C1(NC(=O)c2sc(Cl)c(Cl)c2Br)CC1 [1.0786] | 2.08^[a] | 
NC(=O)C1(NC(=O)c2sc(Br)c(Br)c2Cl)CC1 [1.0787] | 2.10^[a] | 
Cc1c(C(=O)NC2(C(N)=O)CC2)sc(C#N)c1Br [1.0789] | 1.61^[a] | 
CCOC(=O)C(COC)NC(=O)c1sc(C#N)c(Br)c1C (stereo not shown) [1.0792] |  | 2.80^[a]
CCOC(=O)C(CCSC)NC(=O)c1sc(Br)c(Br)c1C#N (stereo not shown) [1.0794] |  | 3.51^[a]
CCOC(=O)C1(NC(=O)c2sc(Br)c(Br)c2F)CSC1 [1.0795] |  | 3.59^[a]
CCOC(=O)C1(NC(=O)c2sc(Br)c(Br)c2C#N)CC1 [1.0799] |  | 2.73^[a]
COC(=O)C1(NC(=O)c2sc(Br)c(Br)c2C#N)CC1 [1.0800] |  | 2.40^[a]
COC(=O)C(C)(C)NC(=O)c1sc(Br)c(Br)c1C#N [1.0801] |  | 2.81^[a]
N#CCNC(=O)c1sc(Br)c(Br)c1C#N [1.0802] |  | 2.11^[a]
CCOC(=O)C(CO)NC(=O)c1sc(Br)c(Br)c1C#N (stereo not shown) [1.0803] |  | 2.29^[a]
CCOC(=O)CN(OC)C(=O)c1sc(Br)c(Br)c1Cl [1.0804] |  | 3.67^[a]
CCOC(=O)C(NC(=O)c1sc(Br)c(Br)c1C#N)C(=O)OCC [1.0805] |  | 3.39^[a]
COC(=O)C1(NC(=O)c2sc(Br)c(Br)c2C#N)CCC1 [1.0806] |  | 2.87^[a]
N#Cc1c(C(=O)NC2(C(N)=O)CC2)sc(Cl)c1Cl [1.0807] |  | 1.71^[a]

Compound | LogP (method marked [a]) | LogP (method [a])
CCOC(=O)C(CO)NC(=O)c1sc(Cl)c(Cl)c1C#N (stereo not shown) [1.0810] |  | 2.23^[a]
CCOC(=O)C(CCSC)NC(=O)c1sc(Br)c(Br)c1F (stereo not shown) [1.0812] |  | 4.05^[a]
CCOC(=O)C(CCSC)NC(=O)c1sc(Cl)c(Cl)c1C#N (stereo not shown) [1.0814] |  | 3.46^[a]
CCOC(=O)C1(NC(=O)c2sc(Br)c(Br)c2C#N)CCC1 [1.0815] |  | 3.23^[a]
CCOC(=O)C(C)NC(=O)c1sc(C#N)c(Br)c1C (stereo not shown) [1.0823] |  | 2.80^[a]
CCOC(=O)[C@H](CO)NC(=O)c1sc(Cl)c(Cl)c1C#N [1.0830] |  | 2.22^[a]
CCOC(=O)[C@H](CO)NC(=O)c1sc(Br)c(Br)c1F [1.0832] |  | 2.54^[a]
CCOC(=O)[C@H](CO)NC(=O)c1sc(C#N)c(Cl)c1C [1.0833] |  | 2.07^[a]
CCOC(=O)C(CO)NC(=O)c1sc(C#N)c(Br)c1C (stereo not shown) [1.0834] |  | 2.16^[a]
CCOC(=O)C(CO)NC(=O)c1sc(C#N)c(Cl)c1C (stereo not shown) [1.0835] |  | 2.12^[a]
COC(=O)C(CCSC)NC(=O)c1sc(C#N)c(Cl)c1C (stereo not shown) [1.0836] |  | 3.03^[a]
CCOC(=O)C(CCSC)NC(=O)c1sc(Br)c(Cl)c1Br (stereo not shown) [1.0838] |  | 4.55^[a]
CCOC(=O)[C@H](CO)NC(=O)c1sc(Br)c(Cl)c1C [1.0841] |  | 2.59^[a]
CCOC(=O)[C@H](CO)NC(=O)c1sc(Cl)c(Br)c1C [1.0842] |  | 2.62^[a]
CCOC(=O)[C@H](CO)NC(=O)c1sc(Br)c(Br)c1C [1.0843] |  | 2.64^[a]
CCOC(=O)C(CO)NC(=O)c1sc(Br)c(Cl)c1C (stereo not shown) [1.0844] |  | 2.60^[a]
CCOC(=O)[C@H](CO)NC(=O)c1sc(C#N)c(Br)c1C [1.0846] |  | 2.11^[a]
CCOC(=O)C(CO)NC(=O)c1sc(Br)c(Cl)c1Br (stereo not shown) [1.0847] |  | 2.89^[a]

Results, then the compound that gave them:

LogP (method marked [a]) | LogP (method [a]) | Compound
3.55^[a] |  | CCOC(=O)C(C)(C)NC(=O)c1sc(Cl)c(Cl)c1C(F)F [1.0746]
3.00^[a] |  | COC(=O)C(NC(=O)c1sc(Cl)c(Cl)c1C(F)F)C(=O)OC [1.0748]
4.04^[a] |  | COC(=O)[C@H](CCSC)NC(=O)c1sc(Br)c(Br)c1Cl [1.0750]
3.54^[a] |  | CCOC(=O)C(CSC)NC(=O)c1sc(C#N)c(Cl)c1Cl (stereo not shown) [1.0752]
3.64^[a] |  | COC(=O)C(CCSC)NC(=O)c1sc(Br)c(Cl)c1C (stereo not shown) [1.0759]
3.71^[a] |  | CCOC(=O)C(C)(C)NC(=O)c1sc(Br)c(Cl)c1C [1.0764]
4.04^[a] |  | COC(=O)C(CCSC)NC(=O)c1sc(Br)c(Br)c1Cl (stereo not shown) [1.0766]
3.60^[a] |  | COC(=O)[C@H](CCSC)NC(=O)c1sc(Br)c(Cl)c1C [1.0768]
3.14^[a] |  | COC(=O)C(CCSC)NC(=O)c1sc(Cl)c(Cl)c1C#N (stereo not shown) [1.0770]
3.91^[a] |  | CCOC(=O)C(COC)NC(=O)c1sc(Br)c(Br)c1Cl (stereo not shown) [1.0776]
3.94^[a] |  | CCOC(=O)C(COC)NC(=O)c1sc(Cl)c(Cl)c1Br (stereo not shown) [1.0777]
3.40^[a] |  | CCOC(=O)CNC(=O)c1sc(Br)c(Cl)c1Br [1.0781]
2.73^[a] |  | C#CCOC(=O)C1(NC(=O)c2sc(C#N)c(Cl)c2Cl)CC1 [1.0784]
1.67^[a] |  | N#Cc1sc(C(=O)NC2(C(N)=O)CC2)c(Cl)c1Cl [1.0788]
3.71^[a] |  | CCOC(=O)CN(OC)C(=O)c1sc(Cl)c(Cl)c1Br [1.0790]
 | 3.26^[a] | COC(=O)C(CCSC)NC(=O)c1sc(C#N)c(Cl)c1Cl (stereo not shown) [1.0791]

LogP (method marked [a]) | LogP (method [a]) | Compound
 | 2.54^[a] | CCOC(=O)CNC(=O)c1sc(C)c(Cl)c1F [1.0793]
 | 1.48^[a] | N#Cc1sc(C(=O)NCC(N)=O)c(Cl)c1Cl [1.0796]
 | 2.59^[a] | CCOC(=O)CNC(=O)c1sc(Br)c(Br)c1C#N [1.0797]
 | 2.24^[a] | COC(=O)CNC(=O)c1sc(Br)c(Br)c1C#N [1.0798]
 | 2.33^[a] | CCOC(=O)C(CO)NC(=O)c1sc(C#N)c(Cl)c1Cl (stereo not shown) [1.0809]
 | 3.60^[a] | CCOC(=O)C(CCSC)NC(=O)c1sc(C#N)c(Cl)c1Cl (stereo not shown) [1.0813]
 | 2.84^[a] | CCOC(=O)[C@H](CO)NC(=O)c1sc(Cl)c(Cl)c1Br [1.0816]
 | 2.84^[a] | CCOC(=O)[C@H](CO)NC(=O)c1sc(Br)c(Br)c1Cl [1.0817]
 | 4.01^[a] | CCOC(=O)C(C)NC(=O)c1sc(Br)c(Br)c1Cl (stereo not shown) [1.0824]
 | 2.82^[a] | COC(=O)CNC(=O)c1sc(I)c(Cl)c1Cl [1.0826]
 | 3.24^[a] | CCOC(=O)CNC(=O)c1sc(I)c(Cl)c1Cl [1.0827]
 | 3.01^[a] | COC(=O)C1(NC(=O)c2sc(I)c(Cl)c2Cl)CC1 [1.0828]
 | 2.26^[a] | CCOC(=O)[C@H](CO)NC(=O)c1sc(C#N)c(Cl)c1Cl [1.0831]
 | 2.75^[a] | N#CCNC(=O)c1sc(Br)c(Cl)c1Br [1.0837]
 | 3.81^[a] | COC(=O)C(C)(C)NC(=O)c1sc(Br)c(Cl)c1Br [1.0840]
 | 3.06^[a] | CCOC(=O)CN(OC)C(=O)c1sc(C#N)c(Cl)c1Cl [1.0845]
